Earlier results as cited in patent US9862672B2, “Antioxidant-based poly(anhydride-esters)” (RUTGERS, THE STATE UNIVERSITY OF NEW JERSEY, priority 2013, dated 2018).

Conditions: in vivo

Elimination half-life: less than 2 hours
SMILES: COc1cc(/C=C/C(=O)O)ccc1O [Ferulic acid]
